Experimental findings from ChEMBL document CHEMBL3865792, “Antioxidant and antitumor activity of trolox, trolox succinate, and α-tocopheryl succinate conjugates with nitroxides” (Eur J Med Chem, 2016) are described below.

Tested on in the first data set: not listed separately
The data set can be described thus: Genotoxicity in Escherichia coli PQ37 expressing lacZ gene assessed as ratio of inducible beta-galactosidase activity to alkaline phosphatase activity at 30 mM after 2 hrs by SOS-chromotest relative to control. Format: toxicity. The note with it: Escherichia coli PQ37 cells expressing lacZ gene, read-out: FC.
As to `Cc1c(C)c2c(c(C)c1O)CCC(C)(C(=O)NC1CC(C)(C)N([O])C(C)(C)C1)O2` (stereo not given), the fold induction at 2 h, 30000 µM was 1.4.

In a further data set the test system is Salmonella typhimurium. Kind of data set: Genotoxicity in Salmonella typhimurium TA102 harboring […] mutant assessed as frequency of reversion from histidine auxotrophy to prototrophy at 30 mM after 48 hrs by Ames test (reference value: 209 +/- 10 No _unit). Format: toxicity, organism-based. To be noted: salmonella enterica subsp. enterica serovar typhimurium, 30000 µM.
With `Cc1c(C)c2c(c(C)c1O)CCC(C)(C(=O)NC1CC(C)(C)N([O])C(C)(C)C1)O2` (stereo not given), the Activity stood at 218.

Another data set relates to Salmonella enterica subsp. enterica serovar Typhimurium. The data set can be described thus: Antioxidant activity in Salmonella typhimurium TA102 harboring […] mutant assessed as inhibition of t-BuO2H-dependant mutant formation at 0.3 uM preincubated with compound followed by t-BuO2H addition after 48 hrs by Ames test. It is filed as functional.
Settings: not given
Consider `Cc1c(C)c2c(c(C)c1O)CCC(C)(C(=O)NC1CC(C)(C)N([O])C(C)(C)C1)O2` (stereo not given), for which the inhibition was 11%.

Another data set shares this test system. The data set can be described thus: Antioxidant activity in Salmonella typhimurium TA102 harboring […] mutant assessed as inhibition of t-BuO2H-dependant mutant formation at 3 uM preincubated with compound followed by t-BuO2H addition after 48 hrs by Ames test.
Settings: not given
Format: functional.
Consider `Cc1c(C)c2c(c(C)c1O)CCC(C)(C(=O)NC1CC(C)(C)N([O])C(C)(C)C1)O2` (stereo not given), for which the inhibition is 21.5%.

For another data set the test system is unchanged. Kind of data set: Antioxidant activity in Salmonella typhimurium TA102 harboring […] mutant assessed as inhibition of t-BuO2H-dependant mutant formation at 30 uM preincubated with compound followed by t-BuO2H addition after 48 hrs by Ames test. Format: functional.
Settings: not given
Regarding `Cc1c(C)c2c(c(C)c1O)CCC(C)(C(=O)NC1CC(C)(C)N([O])C(C)(C)C1)O2` (stereo not given), the inhibition amounted to 4.1%.

Tested on in a further data set: not listed separately
Kind of data set: Cytotoxicity against human MCF7 cells assessed as reduction in cell viability after 72 hrs by MTT assay. Format: functional, cell-based. The note with it: MCF7, 72 h.
`Cc1c(C)c2c(c(C)c1O)CCC(C)(C(=O)NC1CC(C)(C)N([O])C(C)(C)C1)O2` (stereo not given): the concentration for half-maximal inhibition (IC50) came out at 58 µM.

Tested on in the next data set: not listed separately
The data set can be described thus: Cytotoxicity against human RPMI8226 cells assessed as reduction in cell viability after 72 hrs by MTT assay. It is filed as functional, cell-based. The note with it: RPMI-8226, 72 h.
On to `Cc1c(C)c2c(c(C)c1O)CCC(C)(C(=O)NC1CC(C)(C)N([O])C(C)(C)C1)O2` (stereo not given), for which the concentration for half-maximal inhibition (IC50) is 39 µM.

Tested on in the next data set: not listed separately
Kind of data set: Cytotoxicity against human HepG2 cells assessed as reduction in cell viability after 72 hrs by MTT assay. It is filed as functional, cell-based. To be noted: HepG2, 72 h.
As for `Cc1c(C)c2c(c(C)c1O)CCC(C)(C(=O)NC1CC(C)(C)N([O])C(C)(C)C1)O2` (stereo not given), the concentration for half-maximal inhibition (IC50) amounted to 54 µM.

Tested on in a further data set: not listed separately
Kind of data set: Cytotoxicity against human CEM13 cells assessed as reduction in cell viability after 72 hrs by MTT assay. It is filed as functional, cell-based. To be noted: CEM13, 72 h.
For `Cc1c(C)c2c(c(C)c1O)CCC(C)(C(=O)NC1CC(C)(C)N([O])C(C)(C)C1)O2` (stereo not given), the half-inhibitory concentration (IC50) is over 300 µM.

Tested on in a further data set: not listed separately
The data set can be described thus: Cytotoxicity against human U937 cells assessed as reduction in cell viability after 72 hrs by MTT assay. The note with it: U-937, 72 h. Format: functional, cell-based.
For `Cc1c(C)c2c(c(C)c1O)CCC(C)(C(=O)NC1CC(C)(C)N([O])C(C)(C)C1)O2` (stereo not given), the 50% inhibitory concentration (IC50) turned out to be 161 µM.

Tested on in the next data set: not listed separately
Kind of data set: Cytotoxicity against human MT4 cells assessed as reduction in cell viability after 72 hrs by MTT assay. It is filed as functional, cell-based. The note with it: MT4, 72 h.
With `Cc1c(C)c2c(c(C)c1O)CCC(C)(C(=O)NC1CC(C)(C)N([O])C(C)(C)C1)O2` (stereo not given), the IC50 turned out to be 55 µM.

Tested on in a further data set: not listed separately
The data set can be described thus: Cytotoxicity against mouse LMTK cells assessed as reduction in cell viability after 72 hrs by MTT assay. It is filed as toxicity.
Settings: not given
With `Cc1c(C)c2c(c(C)c1O)CCC(C)(C(=O)NC1CC(C)(C)N([O])C(C)(C)C1)O2` (stereo not given), the IC50 at 72 h came out at 252 µM.

Tested on in another data set: not listed separately
The data set can be described thus: Cytotoxicity against hamster AG17-1 cells assessed as reduction in cell viability after 72 hrs by MTT assay. Format: toxicity, cell-based, Cricetulus griseus. To be noted: Chinese hamster.
As to `Cc1c(C)c2c(c(C)c1O)CCC(C)(C(=O)NC1CC(C)(C)N([O])C(C)(C)C1)O2` (stereo not given), the IC50 at 72 h was 186 µM.

Tested on in the next data set: not listed separately
Kind of data set: Cytotoxicity against human CEM13 cells assessed as reduction in cell viability at 300 uM after 72 hrs by MTT assay. Format: functional. The note with it: CEM13, 72 h.
Take `Cc1c(C)c2c(c(C)c1O)CCC(C)(C(=O)NC1CC(C)(C)N([O])C(C)(C)C1)O2` (stereo not given): the inhibition at 300 µM was 32%.

Tested on in the next data set: not listed separately
The data set can be described thus: Ratio of IC50 for human MCF7 cells to concentration causing antioxidant activity in Salmonella typhimurium TA102 harboring […] mutant. Format: functional.
Settings: not given
On to `Cc1c(C)c2c(c(C)c1O)CCC(C)(C(=O)NC1CC(C)(C)N([O])C(C)(C)C1)O2` (stereo not given), for which the Ratio was 100 - 1000.

Tested on in another data set: not listed separately
The data set can be described thus: Ratio of IC50 for human RPMI8226 cells to concentration causing antioxidant activity in Salmonella typhimurium TA102 harboring […] mutant. Format: functional, RPMI-8226.
Settings: not given
As to `Cc1c(C)c2c(c(C)c1O)CCC(C)(C(=O)NC1CC(C)(C)N([O])C(C)(C)C1)O2` (stereo not given), the Ratio was 100 - 1000.

Tested on in a further data set: not listed separately
Kind of data set: Ratio of IC50 for human HEPG2 cells to concentration causing antioxidant activity in Salmonella typhimurium TA102 harboring […] mutant. It is filed as functional.
Settings: not given
Consider `Cc1c(C)c2c(c(C)c1O)CCC(C)(C(=O)NC1CC(C)(C)N([O])C(C)(C)C1)O2` (stereo not given), for which the Ratio is recorded as 100 - 1000.

Tested on in another data set: not listed separately
The data set can be described thus: Ratio of IC50 for human CEM13 cells to concentration causing antioxidant activity in Salmonella typhimurium TA102 harboring […] mutant.
Settings: not given
Format: functional.
Take `Cc1c(C)c2c(c(C)c1O)CCC(C)(C(=O)NC1CC(C)(C)N([O])C(C)(C)C1)O2` (stereo not given): the Ratio was 100 - 1000.

Tested on in the next data set: not listed separately
The data set can be described thus: Ratio of IC50 for human MT4 cells to concentration causing antioxidant activity in Salmonella typhimurium TA102 harboring […] mutant. Format: functional.
Settings: not given
Turning to `Cc1c(C)c2c(c(C)c1O)CCC(C)(C(=O)NC1CC(C)(C)N([O])C(C)(C)C1)O2` (stereo not given), the Ratio was 100 - 1000.

Tested on in a further data set: not listed separately
The data set can be described thus: Ratio of IC50 for human U937 cells to concentration causing antioxidant activity in Salmonella typhimurium TA102 harboring […] mutant. It is filed as functional, U-937.
Settings: not given
For the compound `Cc1c(C)c2c(c(C)c1O)CCC(C)(C(=O)NC1CC(C)(C)N([O])C(C)(C)C1)O2` (stereo not given), the Ratio was 100 - 1000.
